Test results: US10118928B2, “Treatment of H. pylori infections using MTAN inhibitors” (ALBERT EINSTEIN COLLEGE OF MEDICINE, INC., priority 2014, dated 2018)
≈ marks a conversion by molar mass, not a printed value. Read-outs that look alike come from different tables or passages of the source.

Legend:
[1] = test system: H. pylori UNT020-1 (Sydney Strain SS1); assay: MIC by agar dilution (MHIIb agar), strain UNT020-1; type: cell-based; details: Helicobacter pylori, 72 h
Method: (§1) (a) Sample Plate Preparation: Aliquots of a 2-fold serial dilution of Hexyl-SerMe-Immucillin A (from 62.5 μg/mL-6.25 μg/mL in DMSO, 0.02 mL) were mixed into separate 2 mL molten MHIIb agar, and poured into separate wells on each well of a 12-well plate, allowed to set for 20-30 minutes and dry in a biosafety cabinet for 10 minutes prior to Inoculation.
(§2) (b) Inoculation: Frozen inoculate stock of H. pylori strains UNT020-1 (Sydney Strain SS1) and UNT189-1 (ATCC43504) was separately streaked onto Columbia+5% sheep blood agar and microaerophilically incubated for 72 h at 37° C. The plate cultures of the H. pylori strains were then harvested in 0.9% sterile saline solution and the OD at 530 nm of the suspension was determined. The OD of each suspension was adjusted to 1.5-2.0 by dilution into 0.9% sterile saline. The UNT020-1 suspension was further diluted 2:5, but the UNT189-1 suspension was not further diluted, and these were used to inoculate the agar plates. Samples of the suspensions (3 μL) were spotted onto the MHIIb agar wells in the 12-well plate. The CFU/mL of each inoculum was confirmed by generating a 10-fold serial dilution of each inoculum in 0.9% sterile saline and spotting 8 μL of each dilution onto Columbia+5% sheep blood agar plates. After allowing the spots to dry for 10 min, the plates were placed into a microaerophilic chamber and incubated at 37° C. for 72 h.

[2] = test system: H. pylori UNT189-1 (ATCC43504); assay: MIC by agar dilution (MHIIb agar), strain UNT189-1; type: cell-based; details: Helicobacter pylori, 72 h
Method: as §1, §2

[3] = Concentration in mouse gastric mucin after a single oral dose; type: in vivo; details: for concentration at 0.25 h / concentration at 0.5 h / concentration at 1 h / concentration at 2 h / concentration at 4 h / concentration at 8 h / concentration at 12 h / concentration at 24 h: C57/BL6, mouse, gastric mucin, po, 10 mg/kg, mouse; for concentration at 0.25 h: 0.25 h after single dose 10 mg/kg PO; for concentration at 0.5 h: 0.50 h after single dose 10 mg/kg PO; for concentration at 1 h: 1.00 h after single dose 10 mg/kg PO; for concentration at 2 h: 2.00 h after single dose 10 mg/kg PO; for concentration at 4 h: 4.00 h after single dose 10 mg/kg PO; for concentration at 8 h: 8.00 h after single dose 10 mg/kg PO; for concentration at 12 h: 12.0 h after single dose 10 mg/kg PO; for concentration at 24 h: 24.0 h after single dose 10 mg/kg PO
Method: (a) Oral Dosing of Mice with 10 mg/kg Hexyl-SerMe-Immucillin A: Female C57/BL6 mice ranging from 5-6 weeks in age and 18-22 grams in weight (Harlan Laboratories) were dosed by oral gavage with of Hexyl-SerMe-Immucillin A (0.4 mL of a 0.5 mg/mL solution in water for injection).
(b) Mucin Sampling: Mice (3 mice/time point) were euthanized via CO2 inhalation at 0.25, 0.5, 1, 2, 4, 8, 12 and 24 h, then the mucin layer was scraped from the longitudinally dissected stomach using a glass slide, collected and weighed.
(c) Preparation of Gastric Mucin Homogenates: Approximately 30 mg of mouse mucin was weighted into a 2 mL homogenizer tube (prefilled with 3.0 mm i.d. zirconium beads) and mixed with 0.2 mL PBS buffer. This was homogenized for 3 min at 4,000 rpm in a Beadbug D1030 (Benchmark Scientific) homogenizer.
(d) Extraction of Gastric Mucin Homogenates: Samples of mucin homogenate (50 μL) and of internal standard (see below) in water (10 μL) were treated with trichloroacetic acid (30% w/v, 30 μL), diluted with water (160 μL), vortexed for 10 sec and sonicated for 10 min, then centrifuged at 14,500 rpm for 5 min. A sample of the supernatant (160 μL) was transferred into autosampler vials. The internal standard was Butylthio-DADMe-Immucillin-H at 5.0 and 20.0 μg/mL.
(f) HPLC-MS-MS Analysis: Aliquots of supernatant (10 μL) were injected for analysis on Surveyor HPLC system (Thermo) fitted with an ACE 3 C18 Column (50×3 mm, 3 μm particles), with gradient elution at 30° C. with 400 μL/min mobile phase comprised of mixtures of 0.1% trifluoroacetic acid in water (A) and methanol (B) as follows: 0-5 min, A:B 9:1; 5-6.1 min, A:B 1:9; 6.1-10 min A:B 9:1. Hexyl-SerMe-Immucillin A eluted at 4.41±0.003 min. Detection was ESI MS/MS using a LCQ Deca (Thermo) in selected-reaction monitoring (SRM) positive mode using the MS/MS event m/z 292.2→147.2 and ion spray voltage of 4.5 kV.

[4] = female, read-out: concentration in gastric mucin, Animal-1
[5] = female, read-out: concentration in gastric mucin, Animal-2
[6] = female, read-out: concentration in gastric mucin, Animal-3
[7] = female, read-out: concentration in gastric mucin, Mean

MIC [1]: 1.9 ng/mL (≈ 6.52 nM) | MIC [2]: 1.9 ng/mL (≈ 6.52 nM) | concentration at 0.25 h [3, 4]: 60400 ng/g | concentration at 0.25 h [3, 5]: 64400 ng/g | concentration at 0.25 h [3, 6]: 45900 ng/g | concentration at 0.25 h [3, 7]: 56900 ng/g | concentration at 0.5 h [3, 4]: 46200 ng/g | concentration at 0.5 h [3, 5]: 90200 ng/g | concentration at 0.5 h [3, 6]: 60200 ng/g | concentration at 0.5 h [3, 7]: 65500 ng/g | concentration at 1 h [3, 4]: 20400 ng/g | concentration at 1 h [3, 5]: 12200 ng/g | concentration at 1 h [3, 6]: 12000 ng/g | concentration at 1 h [3, 7]: 14900 ng/g | concentration at 2 h [3, 4]: 2020 ng/g | concentration at 2 h [3, 5]: 1080 ng/g | concentration at 2 h [3, 6]: 16200 ng/g | concentration at 2 h [3, 7]: 6440 ng/g | concentration at 4 h [3, 4]: 670 ng/g | concentration at 4 h [3, 5]: 3740 ng/g | concentration at 4 h [3, 6]: 910 ng/g | concentration at 4 h [3, 7]: 1770 ng/g | concentration at 8 h [3, 4]: 650 ng/g | concentration at 8 h [3, 5]: 1620 ng/g | concentration at 8 h [3, 6]: 530 ng/g | concentration at 8 h [3, 7]: 930 ng/g | concentration at 12 h [3, 4]: 960 ng/g | concentration at 12 h [3, 5]: 950 ng/g | concentration at 12 h [3, 6]: 330 ng/g | concentration at 12 h [3, 7]: 740 ng/g | concentration at 24 h [3, 4]: 540 ng/g | concentration at 24 h [3, 5]: 390 ng/g | concentration at 24 h [3, 6]: 300 ng/g | concentration at 24 h [3, 7]: 410 ng/g | Cmax ([3]; female, C57/BL6, mouse gastric mucin, 10 mg/kg oral gavage): 65500 ng/g | half-life ([3]; female, C57/BL6, mouse gastric mucin, 10 mg/kg oral gavage, read-out: terminal half-life (converted)): 2.72 h | total exposure [AUC(0-inf)] ([3]; mouse gastric mucin, 10 mg/kg oral gavage): 78.6 µg·h/g
Structure (SMILES): CCCCCC[C@@H](CO)NCc1c[nH]c2c(N)ncnc12 [Hexyl-SerMe-Immucillin A, (2S)-2-[({4-Amino-5H-pyrrolo[3,2-d]pyrimidin-7-yl}methyl)amino]octan-1-ol]
